These results are taken from the Biogen ADME set (Fang et al. 2023).

In brackets after ≈: the same amount, converted by molar mass. A value given as a limit tells only on which side of the number the result lay.

The conditions of the series: for aqueous solubility: pH 6.8.

As to `Cc1cc(Nc2nnc(C)s2)cc(C2CN(C(=O)Cc3csc(C)n3)CCO2)n1` (stereo not drawn), the MDR1-MDCK efflux ratio was 35.5; the intrinsic clearance, human liver microsomes amounted to 18.7 mL/min/kg; the intrinsic clearance, rat liver microsomes came to 103 mL/min/kg.
For the compound `CO[C@@H](C(=O)Nc1cc2c(C)cc(=O)oc2cc1C)c1ccccc1`, the MDR1-MDCK efflux ratio stood at 1.15; the intrinsic clearance, human liver microsomes stood at 12.8 mL/min/kg; the intrinsic clearance, rat liver microsomes amounted to 256 mL/min/kg; the aqueous solubility was 39.8 µg/mL (≈ 118 µM).
For the compound `CCC[C@@H]1C[C@@H](C(=O)N[C@@H]([C@H]2O[C@H](SC)[C@H](O)[C@@H](O)[C@@H]2O)[C@@H](C)O)N(C)C1`, the MDR1-MDCK efflux ratio was 2.51; the intrinsic clearance, human liver microsomes was determined as 13.3 mL/min/kg; the intrinsic clearance, rat liver microsomes came to 88.3 mL/min/kg.
For the compound `c1ccc(OCc2nc3cc4ccccc4cc3[nH]2)cc1`, the MDR1-MDCK efflux ratio was found to be 0.257 and the aqueous solubility was determined as 0.29 µg/mL (≈ 1.06 µM).
The compound `COc1cccc(/C=C2/N=C(c3ccccc3)NC2=O)c1OC` came in with an aqueous solubility of 0.33 µg/mL (≈ 1.07 µM).
With `NC(=O)CN1CCC(Oc2cccc(F)c2)CC1`, the MDR1-MDCK efflux ratio is 0.543; the intrinsic clearance, human liver microsomes was at most 4.74 mL/min/kg; the intrinsic clearance, rat liver microsomes is 71.6 mL/min/kg; the aqueous solubility was found to be 60.8 µg/mL (≈ 241 µM).
With `Cc1nnc2ccc(NCCOC3CCCCCC3)nn12`, the MDR1-MDCK efflux ratio was found to be 1.54; the intrinsic clearance, human liver microsomes turned out to be 49.9 mL/min/kg; the intrinsic clearance, rat liver microsomes was 901 mL/min/kg.
`Cc1cc(Nc2ccc(F)cn2)cc(C2CCN(C(=O)COc3ccccc3F)C2)n1` (stereo not drawn): the MDR1-MDCK efflux ratio was 9.5; the intrinsic clearance, human liver microsomes was 115 mL/min/kg; the intrinsic clearance, rat liver microsomes is 507 mL/min/kg; the aqueous solubility was 55.6 µg/mL (≈ 131 µM).
`Cc1noc(C)c1N(C)CCn1cncn1` registered an intrinsic clearance, human liver microsomes of at most 4.74 mL/min/kg and an intrinsic clearance, rat liver microsomes of 38.4 mL/min/kg.
`Cc1ccc(S(=O)(=O)Cc2nc(-c3ccc(C(=O)NCc4cccnc4)cc3)oc2C)cc1`: the MDR1-MDCK efflux ratio was 56.4 and the aqueous solubility stood at 0.33 µg/mL (≈ 0.715 µM).
With `O[C@@H]1C[C@@H](c2nc(-c3ccccc3)no2)N(Cc2ccccc2)C1`, the MDR1-MDCK efflux ratio worked out at 0.539; the intrinsic clearance, human liver microsomes turned out to be 54.2 mL/min/kg; the intrinsic clearance, rat liver microsomes was 908 mL/min/kg; the aqueous solubility was determined as 41.6 µg/mL (≈ 129 µM).
In the case of `Cc1cc(CN(C)Cc2cscn2)no1`, the MDR1-MDCK efflux ratio came to 0.537; the intrinsic clearance, human liver microsomes is at most 4.74 mL/min/kg; the intrinsic clearance, rat liver microsomes was determined as 24.9 mL/min/kg; the aqueous solubility turned out to be 28.6 µg/mL (≈ 128 µM).
Turning to `CN(CCCC1CCCC1)Cc1cc(=O)[nH]c(=O)[nH]1`, the MDR1-MDCK efflux ratio came to 0.839; the intrinsic clearance, human liver microsomes amounted to 7.57 mL/min/kg; the intrinsic clearance, rat liver microsomes amounted to 165 mL/min/kg.
The corresponding values for `CC[C@@H]1C(=O)N(C)c2cnc(-n3ccnc3-c3ccc(F)cc3)nc2N1c1ccn(C)n1` are 14.2, 43.7 mL/min/kg and 413 mL/min/kg.
As for `O=C(Nc1nc(-c2ccccn2)cs1)c1ccc(F)cc1Cl`, the MDR1-MDCK efflux ratio stood at 0.149; the intrinsic clearance, human liver microsomes was determined as 82.2 mL/min/kg; the intrinsic clearance, rat liver microsomes came out at 127 mL/min/kg; the aqueous solubility stood at 5.16 µg/mL (≈ 15.5 µM).
Turning to `CN(C)c1nccc(N2CCN(CCCCCF)CC2)n1`, the MDR1-MDCK efflux ratio is 0.419; the intrinsic clearance, human liver microsomes came to 32.4 mL/min/kg; the intrinsic clearance, rat liver microsomes was 1440 mL/min/kg.
For `CSC1(CNC(=O)N2CCC=C(c3ccccc3)C2)CCOCC1` the same measures were 1.61, 120 mL/min/kg and 2750 mL/min/kg.
As to `COCc1noc(CNC(=O)N(C)[C@@H](C)c2ccccc2)n1`, the MDR1-MDCK efflux ratio came out at 2.71; the intrinsic clearance, human liver microsomes was at most 4.74 mL/min/kg; the intrinsic clearance, rat liver microsomes stood at 63.5 mL/min/kg.
Turning to `COc1ccc2cc(C(=O)NCc3nnc4n3CCCCC4)ccc2c1`, the MDR1-MDCK efflux ratio is 35.2; the intrinsic clearance, human liver microsomes is 13.8 mL/min/kg; the intrinsic clearance, rat liver microsomes was found to be 655 mL/min/kg.
On to `CC(C)(O)Cn1nc(-c2ccccc2)c2c(Cl)c(-c3ccccc3)nnc21`, for which the MDR1-MDCK efflux ratio was found to be 0.725; the intrinsic clearance, human liver microsomes is at most 4.74 mL/min/kg; the intrinsic clearance, rat liver microsomes was found to be 85.5 mL/min/kg.
For `O=S(=O)(NCc1n[nH]c2c1CCCCC2)c1ccc(OC(F)F)cc1` the same measures were 7.25, 361 mL/min/kg and 1760 mL/min/kg.
As for `COc1cccc(NC(=O)CNc2cccc(-c3ccnc(C)n3)c2)c1`, the MDR1-MDCK efflux ratio is 2.39; the intrinsic clearance, human liver microsomes was 61.2 mL/min/kg; the intrinsic clearance, rat liver microsomes came out at 250 mL/min/kg; the aqueous solubility turned out to be 50.5 µg/mL (≈ 145 µM).
On to `Cc1cc(CN2CC(O)(CC#N)C2)ccc1F`, for which the MDR1-MDCK efflux ratio came to 0.602; the intrinsic clearance, human liver microsomes is 15 mL/min/kg; the intrinsic clearance, rat liver microsomes stood at 703 mL/min/kg.
Consider `Cc1csc(-c2nnc(Nc3ccc(Oc4ncccc4-c4ccnc(N)n4)cc3)c3ccccc23)c1`, for which the MDR1-MDCK efflux ratio turned out to be 0.918 and the aqueous solubility amounted to 0.76 µg/mL (≈ 1.51 µM).
With `CO[C@H]1/C=C\C=C(/C)C(=O)NC2=CC(=O)C(NCCN(C)C)=C(C[C@@H](C)C[C@@H](OC)[C@@H](O)[C@@H](C)/C=C(\C)[C@H]1OC(N)=O)C2=O`, the MDR1-MDCK efflux ratio worked out at 61.5; the intrinsic clearance, human liver microsomes worked out at 21 mL/min/kg; the intrinsic clearance, rat liver microsomes stood at 73.6 mL/min/kg.
Take `Cc1cc(N2CCN(C(=O)OC(C)(C)C)[C@H](C)C2)ncn1`: the MDR1-MDCK efflux ratio was 0.766; the intrinsic clearance, human liver microsomes stood at 9.46 mL/min/kg; the intrinsic clearance, rat liver microsomes came to 124 mL/min/kg; the aqueous solubility was found to be 51.7 µg/mL (≈ 177 µM).
Compound `CCCN(C(=O)c1ccccc1N)C(C)C` returned an intrinsic clearance, human liver microsomes of at most 4.74 mL/min/kg and an intrinsic clearance, rat liver microsomes of 342 mL/min/kg.
The compound `O=C(Cc1cccc2ccccc12)NCc1ccc(N2CCCC2=O)cc1` showed an aqueous solubility of 14.1 µg/mL (≈ 39.4 µM).
`Cn1ccc(C(=O)N2CCCC(c3cccc(-c4cccc(Cl)c4)n3)C2)n1` (stereo not drawn): the MDR1-MDCK efflux ratio came out at 0.822; the intrinsic clearance, human liver microsomes came to 63 mL/min/kg; the intrinsic clearance, rat liver microsomes came to 669 mL/min/kg; the aqueous solubility amounted to 26.7 µg/mL (≈ 70.1 µM).
For `O=C1CCCN1C(=O)COc1cccc(-c2nnco2)c1` the same measures were 0.91, at most 4.74 mL/min/kg, 27.5 mL/min/kg and 54.9 µg/mL (≈ 191 µM).
On to `Cn1nccc1C(=O)NCCc1cc2nc(-c3cccs3)ccn2n1`, for which the intrinsic clearance, human liver microsomes worked out at 67.5 mL/min/kg and the intrinsic clearance, rat liver microsomes was 565 mL/min/kg.
In the case of `Cc1ncsc1C(=O)N1CCCCC1c1nc(N)ncc1-c1cccc(C(F)(F)F)c1` (stereo not drawn), the MDR1-MDCK efflux ratio stood at 9.17; the fraction unbound, human plasma is 0.0412; the fraction unbound, rat plasma was 0.0729; the intrinsic clearance, human liver microsomes amounted to 373 mL/min/kg. The compound further returned an intrinsic clearance, rat liver microsomes of 578 mL/min/kg and an aqueous solubility of 14.3 µg/mL (≈ 32 µM).
Regarding `CC(=O)N1CCN(c2c(Cl)cccc2NC(=O)COc2ccccc2Cl)CC1`, the fraction unbound, human plasma is 0.0181; the intrinsic clearance, human liver microsomes is 430 mL/min/kg; the intrinsic clearance, rat liver microsomes was found to be 3580 mL/min/kg; the aqueous solubility is 19.5 µg/mL (≈ 46.2 µM).
